{"source": "paper PMC6218659", "about": "“Structures of DPAGT1 Explain Glycosylation Disease Mechanisms and Advance TB Antibiotic Design” (Cell, 2018)", "key": {"DPAGT1 Arg301His": {"molecular_target": "T1, DPAGT1 Arg301His (Homo sapiens, UniProt Q9H3H5, R301H)", "T1 construct": "combined with the LIC-adapted primers to amplify the complete DPAGT1 gene, including the desired mutations; 6xHis purification tag with TEV site (N, cleaved yes); made in house; host or cells: Spodoptera frugiperda Sf9 insect cells (baculovirus)", "T1 sequence (Q9H3H5 1-408 R301H)": "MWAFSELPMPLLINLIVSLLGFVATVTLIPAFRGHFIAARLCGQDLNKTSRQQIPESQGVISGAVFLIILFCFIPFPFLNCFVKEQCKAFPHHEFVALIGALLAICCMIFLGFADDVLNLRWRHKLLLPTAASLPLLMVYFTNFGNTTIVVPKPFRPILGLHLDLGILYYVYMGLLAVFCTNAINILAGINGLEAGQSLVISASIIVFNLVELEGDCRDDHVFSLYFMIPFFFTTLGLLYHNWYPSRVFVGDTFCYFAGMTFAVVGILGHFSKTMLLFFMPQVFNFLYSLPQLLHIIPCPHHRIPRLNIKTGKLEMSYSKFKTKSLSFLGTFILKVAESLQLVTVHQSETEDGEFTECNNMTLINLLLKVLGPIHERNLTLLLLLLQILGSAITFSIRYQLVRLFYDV", "experiment": "Thermostability assay (label free differential scanning fluorimetry)", "assay_type": "binding, H. sapiens", "details": "50 μM compound", "procedure": "(§1) Samples with a volume of 40 μl were prepared containing 0.5 mg/ml protein and 50 μM compound or 5% DMSO in GFB. A glass capillary was dipped into each sample, with the capillary held horizontally to ensure that the capillary was full of the sample. The capillaries were placed on the capillary holder on the Nanotemper Prometheus. Technical triplicates of each sample were prepared, and each experiment was conducted with biological triplicates of each protein. PR.ThermControl software was used to run the experiment and analyse the data. A melting curve from 20 °C – 95 °C at 5 °C/min was performed. The minimum of the first derivative of the 330/350nm ratio was used to determine the Tm1/2."}, "DPAGT1 Tyr170Cys": {"molecular_target": "T2, DPAGT1 Tyr170Cys (Homo sapiens, UniProt Q9H3H5, Y170C)", "T2 construct": "combined with the LIC-adapted primers to amplify the complete DPAGT1 gene, including the desired mutations; 6xHis purification tag with TEV site (N, cleaved yes); made in house; host or cells: Spodoptera frugiperda Sf9 insect cells (baculovirus)", "T2 sequence (Q9H3H5 1-408 Y170C)": "T1 sequence (Q9H3H5 1-408 R301H) with Y170C, H301R", "experiment": "Thermostability assay (label free differential scanning fluorimetry)", "assay_type": "binding, H. sapiens", "details": "50 μM compound", "procedure": "as §1"}, "DPAGT1 Val264Gly": {"molecular_target": "T3, DPAGT1 Val264Gly (Homo sapiens, UniProt Q9H3H5, V264G)", "T3 construct": "H. sapiens DPAGT1 (1-408, Val264Gly, N-terminal 6 x HIS tag, TEV cleavage site); 6xHis purification tag with TEV site (N, cleaved yes); made in house; host or cells: Spodoptera frugiperda Sf9 insect cells (baculovirus)", "T3 sequence (Q9H3H5 1-408 V264G)": "T1 sequence (Q9H3H5 1-408 R301H) with V264G, H301R", "experiment": "Thermostability assay (label free differential scanning fluorimetry)", "assay_type": "binding, H. sapiens", "details": "50 μM compound", "procedure": "as §1"}, "DPAGT1 WT": {"molecular_target": "T4, DPAGT1 WT (Homo sapiens, UniProt Q9H3H5)", "T4 construct": "H. sapiens DPAGT1 (1-408, N-terminal 6 x HIS tag, TEV cleavage site); 6xHis purification tag with TEV site (N, cleaved yes); made in house; host or cells: Spodoptera frugiperda Sf9 insect cells (baculovirus)", "T4 sequence (Q9H3H5 1-408)": "T1 sequence (Q9H3H5 1-408 R301H) with H301R", "experiment": "Thermostability assay (label free differential scanning fluorimetry)", "assay_type": "binding, H. sapiens", "details": "50 μM compound", "procedure": "as §1"}, "P. aeruginosa ATCC27853": {"system": "P. aeruginosa ATCC27853", "experiment": "Micro-broth dilution and drop plate antimicrobial susceptibility test", "assay_type": "cell-based", "details": "Pseudomonas aeruginosa", "procedure": "(§2) In a sterile 96-well plate, serial dilutions were made with the test substance to final volume of 50 μl. Inoculum was then prepared in Mueller-Hinton broth to 0.5 McFarland and diluted before adding 50 μl to the well to make ∼1x10^5 CFU/ml. The culture plate was incubated at 35 °C for 20-24 hrs. A positive growth control and sterility wells were also prepared along with the culture wells. Absorbance at OD600 was taken using BMG Labtech SPECTROstar Omega spectrophotometer. MIC is determined by the lowest concentration without growth. IC50 is determined from plotting a dose-response curve, see Data Analysis below. To determine the MBC, using a multi-channel pipette, 1 μl of culture broth was taken from the same 96-well microdilution growth plate and carefully inoculated on surface of MH agar plate. The plate is then incubated for additional 20 hrs. at 35 °C. The MBC value is the lowest concentration without observed growth on the agar."}, "S. aureus ATCC29219": {"system": "S. aureus ATCC29219", "experiment": "Micro-broth dilution and drop plate antimicrobial susceptibility test", "assay_type": "cell-based", "details": "Staphylococcus aureus", "procedure": "as §2"}, "[1]": {"system": "Mtb-infected J774A.1 macrophages", "experiment": "Efficacy against Mtb growing in infected macrophages", "details": "J774A.1 macrophages treated 3 or 7 days"}}, "note": "Positions count from the first letter of the chain named. Structures can show the parent of a compound that is named as a salt."}
{"smiles": "N[C@H]1[C@H](O[C@H]2O[C@H](CO)[C@@H](O)[C@H](O)[C@H]2N)O[C@H](C[C@@H](O)[C@H]2O[C@@H](n3ccc(=O)[nH]c3=O)[C@H](O)[C@@H]2O)[C@H](O)[C@@H]1O", "note": "[TUN, α-D-glucosamine-(1”-11')-tunicamyl uracil dihydrochloride]", "values": [{"measurement": "Thermostability (Tm1/2) with added compound", "setting": "DPAGT1 Arg301His", "value": "81.2±0.5", "unit": "°C"}, {"measurement": "Thermostability (Tm1/2) with added compound", "setting": "DPAGT1 Tyr170Cys", "value": "83.1±0.8", "unit": "°C"}, {"measurement": "Thermostability (Tm1/2) with added compound", "setting": "DPAGT1 Val264Gly", "value": "82.6±0.1", "unit": "°C"}, {"measurement": "Thermostability (Tm1/2) with added compound", "setting": "DPAGT1 WT", "value": "83.0±0.4", "unit": "°C"}]}
{"smiles": "CCCCCCCC(=O)N[C@H]1[C@H](O[C@H]2O[C@H](CO)[C@@H](O)[C@H](O)[C@H]2NC(=O)CCCCCCC)O[C@H](C[C@@H](O)[C@H]2O[C@@H](n3ccc(=O)[nH]c3=O)[C@H](O)[C@@H]2O)[C@H](O)[C@@H]1O", "note": "[TUN-8,8, Di-N-octanoyl-tunicamycin]", "values": [{"measurement": "IC50", "setting": "P. aeruginosa ATCC27853", "value": 46.6, "unit": "µg/mL"}, {"measurement": "MBC", "setting": "P. aeruginosa ATCC27853", "value": "> 400", "unit": "µg/mL"}, {"measurement": "MIC", "setting": "P. aeruginosa ATCC27853", "value": "83 ± 29", "unit": "µg/mL"}, {"measurement": "IC50", "setting": "S. aureus ATCC29219", "value": 58.4, "unit": "µg/mL"}, {"measurement": "MBC", "setting": "S. aureus ATCC29219", "value": 400, "unit": "µg/mL"}, {"measurement": "MIC", "setting": "S. aureus ATCC29219", "value": "170 ± 60", "unit": "µg/mL"}, {"measurement": "reduction of intracellular bacterial burdens", "setting": "[1]; 1 × MIC", "value": 1, "unit": "logs"}, {"measurement": "reduction of intracellular bacterial burdens", "setting": "[1]; 10 × MIC", "value": 2, "unit": "logs"}]}
